Measured values: publication PMC3391587 (Journal of Nuclear Medicine, 2012)

Experiment: HPLC radiometabolite analysis of arterial plasma after [^18F]DPA-714 injection
Type: in vivo
Conditions: rat arterial plasma, mean ± SD

% [^18F]DPA-714 (parent) in plasma (P.I. time 12 (min), N=7): 68 ± 7.4%
% [^18F]DPA-714 (parent) in plasma (P.I. time 30 (min), N=7): 44 ± 8.9%
% [^18F]DPA-714 (parent) in plasma (P.I. time 60 (min), N=7): 27 ± 6.2%
% [^18F]DPA-714 (parent) in plasma (P.I. time 90 (min), N=5): 22 ± 17.8%
SMILES: CCN(CC)C(=O)Cc1c(-c2ccc(OCC[18F])cc2)nn2c(C)cc(C)nc12 [[^18F]DPA-714, N,N-diethyl-2-(2-(4-(2-(^18F)-fluoroethoxy)phenyl)-5,7-dimethylpyrazolo[1,5-a]pyrimidin-3-yl)acetamide]
